Data published in patent publication EP0231622B1, “Inhibition of the 5-lipoxygenase pathway” (priority 1985, dated 1987).
Marks after values point to notes of the source that are not given here.

What was measured:
[1] = test system: Polymorphonuclear Leukocytes; assay: Mouse Carrageenan Peritonitis (PMN infiltration); assay type: in vivo, Balb/c mice; settings: for % Change / PMN x 10⁻⁵/ml (mean ± S.D.): Table 1, p.o.
Summary of the method: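 Male Balb/c mice dosed orally by gavage (compounds in 0.5% tragacanth) 1 h before i.p. 1.0% carrageenan; NDGA given s.c. Peritoneal lavage with Ca/Mg-free PBS 2 h post-injection; total cells by Coulter counter, differentials from Giemsa-stained slides.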

[2] = test system: Arachidonic Acid-Induced Cellular Infiltration; assay: Arachidonic acid-induced air pouch inflammation; assay type: in vivo, Lewis rats; settings: 100 mg/kg; 3 hours after arachidonic acid
Source text: In the following Examples where mice were used, they were male Balb/c mice (20-28 g), and where rats were used, they were male Lewis rats (180-210 g). All mice and rats were obtained from Charles River Breeding Laboratories, Kingston, N.Y. Within a single experiment, mice and rats were sex and age matched.
The compounds of Formula (IA) were used either as the free base or in the appropriate salt form. Levamisole was used as the hydrochloride salt. The compounds were homogenized in 0.5% tragacanth. Compounds were administered by gavage at the indicated dose in a final volume of 10 ml/kg. Nordihydroguaiaretic acid (NDGA) was solubilized in dimethylacetamide and diluted with olive oil for subcutaneous administration.
Rats were shaved on the dorsal flank, and then injected subcutaneously one day later with 20 ml of air to form a defined pouch, by the method of Sedgwick et al., J. Pathology, 141, 483-495 (1983). The air pouch was reinflated as necessary over the next 6 days. To assay anti-inflammatory activity, animals were treated orally with test compound or vehicle (10 ml/kg) one hour before injection of 2.0 ml of a 2.0% carrageenan suspension containing 200 units/ml penicillin and 100 »g/ml streptomycin into the air pouch. In other experiments, 5 ml of 0.1% arachidonic acid in 0.2 M bicarbonate buffer was injected two hours after drug treatment. Animals were sacrificed using CO₂ three hours after instillation of irritant. The exudate was then aspirated from the pouch and neutrophil count and differential cell count were measured.

Cyclooxygenase = Cyclooxygenase activity (PGD2) in 10,000 x g supernatant of RBL-1 cells; assay type: biochemical; settings: text b252; RBL-1 cell extracts; read-out: IC₅₀ PGD₂ production
Description: (§1) For in vitro experiments, compounds were dissolved at appropriate concentrations in ethanol or DMSO (dimethylsulfoxide) (final concentration <1.0%) and then diluted to final concentrations using the buffers indicated in the text.
(§2) Harvested cells were washed with 50 mM sodium phosphate buffer, pH 7.0, containing 1 mM EDTA and 0.1% gelatin, resuspended in fresh buffer (5 x 10⁷ cells/ml) and disrupted by nitrogen cavitation using the Parr bomb at 750 psi for 10 min. The broken cell extract was then centrifuged at 10,000 x g for 20 minutes and the supernatant centrifuged at 100,000 x g for 60 minutes. Aliquots (0.25 mls) of the supernatant were preincubated with or without drugs for 10 min, after which 10 ul CaCl₂ (50 mM) was added and the reaction was initiated with 2.5 ul of 2.5 mM arachidonic acid-1-¹⁴C (final concentration was 25 mM; specific activity 20,000 dpm/nmole). After incubation for 3 min at 37°C, the reaction was terminated by addition of 2 volumes (0.5 ml) ice cold acetone and the sample was allowed to deproteinize on ice for 10 min prior to centrifugation at 1,000 x g for 10 min. The deproteinized supernatant was adjusted to pH 3.5 with 2N formic acid and extracted with 2 volumes of ice cold ethyl acetate. […] Arachidonic acid, 5-HETE, di-HETE and PGD₂ were quantified with a Berthold LB 2832 autoscanner.

5-Lipoxygenase = molecular target: T1, 5-Lipoxygenase (Rattus norvegicus, UniProt P12527); assay: 5-Lipoxygenase activity (5-HETE) in 10,000 x g supernatant of RBL-1 cells; assay type: biochemical; settings: text b252; RBL-1 cell extracts; read-out: IC₅₀ 5-HETE synthesis
T1 construct: The activities of these enzymes in extracts of RBL-1 cells were assayed; host or cells: RBL-1 cells, disrupted by nitrogen cavitation; 10,000 x g or 100,000 x g supernatant
T1 sequence (P12527 1-673): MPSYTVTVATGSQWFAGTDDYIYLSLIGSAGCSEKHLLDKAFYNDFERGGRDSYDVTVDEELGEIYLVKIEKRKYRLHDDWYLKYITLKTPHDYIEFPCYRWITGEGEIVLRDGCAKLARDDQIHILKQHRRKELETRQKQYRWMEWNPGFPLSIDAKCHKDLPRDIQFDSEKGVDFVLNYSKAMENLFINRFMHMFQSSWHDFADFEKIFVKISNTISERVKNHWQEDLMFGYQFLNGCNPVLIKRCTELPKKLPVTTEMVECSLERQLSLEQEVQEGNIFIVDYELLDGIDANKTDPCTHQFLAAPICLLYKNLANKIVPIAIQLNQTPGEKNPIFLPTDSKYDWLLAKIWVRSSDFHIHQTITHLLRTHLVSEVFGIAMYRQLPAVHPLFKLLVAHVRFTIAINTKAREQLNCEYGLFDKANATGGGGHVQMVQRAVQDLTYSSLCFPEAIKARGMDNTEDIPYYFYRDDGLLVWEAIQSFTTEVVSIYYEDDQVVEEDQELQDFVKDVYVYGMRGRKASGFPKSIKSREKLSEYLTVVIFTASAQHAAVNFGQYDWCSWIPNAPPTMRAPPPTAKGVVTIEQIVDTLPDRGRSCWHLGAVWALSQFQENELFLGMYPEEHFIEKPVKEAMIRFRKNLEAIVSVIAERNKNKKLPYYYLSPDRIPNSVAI
Description: as §1, §2

[3] = test system: Experimental Allergic Encephalomyelitis; assay: Experimental allergic encephalomyelitis, hindleg paralysis; assay type: in vivo, Female Lewis rats; settings: 60 Mg/kg/day, p.o. days 0-4, 7-11, 14-18
Description: EAE is induced in Female (Charles River) Lewis rats by a single intradermal injection of 0.1 ml of an encephalitogenic emulsion consisting of equial parts of a 50% w/v homogenate of guinea pig spinal cord and mid-brain in 0.5% aqueous phenol and Freund's complete adjuvant (4 mg/ml killed, dried M. butyricum) into a hindpaw (left) footpad. […] Any animal which becomes paralyzed during the course of the experiment is considered to have developed EAE whether or not the paralysis is permanent. Test compounds are administered daily beginning on the day of injection, for 19 days, exclusive of days 5, 6 12 and 13. Drug activity is determined by comparing the indicidence of EAE (paralysis) of the treated group with a control (vehicle) group. The level of significant difference between the treated groups and control groups is determined by a Chi-square test using a 2x2 contingency table. Body weight changes from day 0 are also statistically compared to the control group using a Student "t" test.

**Q.** How did the ED50 ([1]; Mus musculus, Leukocyte, po, intraperitoneal carrageenan in mice, read-out: ED₅₀ (inhibition of PMN infiltration)) turn out when `Fc1ccc(-c2nc3n(c2-c2ccncc2)CCS3)cc1` [Compound 1, 5-(4-pyridyl)-6-(4-fluorophenyl)-2,3-dihydroimidazo[2,1-b]thiazole] was run?
**A.** 43.9 mg/kg

**Q.** And the “% Change” value ([1]; 25 mg/kg)?
**A.** -27^e %

**Q.** And the “% Change” value ([1]; 50 mg/kg)?
**A.** -56^c %

**Q.** What about the “PMN x 10⁻⁵/ml (mean ± S.D.)” value ([1]; 50 mg/kg) of the same molecule?
**A.** 4.84 ± 3.01 x 10⁻⁵/ml

**Q.** And the “PMN x 10⁻⁵/ml (mean ± S.D.)” value ([1]; 100 mg/kg, 1 h before i.p. carrageenan, read 2 h later)?
**A.** 2.48 ± 0.98 x 10⁻⁵/ml

**Q.** What about the “% Change” value ([1]; 100 mg/kg, PMN vs vehicle) of the same molecule?
**A.** -77^b %

**Q.** What about the “Cellular Infiltrate (Total x 10⁻⁶) MN” value [2] of the same molecule?
**A.** 1.5 ± 1.1^d x 10⁻⁶

**Q.** And the “Cellular Infiltrate (Total x 10⁻⁶) PMN” value [2]?
**A.** 1.2 ± 0.7^e x 10⁻⁶

**Q.** What about the “Exudate Volume” value [2] of the same molecule?
**A.** 2.6 ± 0.8 mL

**Q.** And the IC50 (Cyclooxygenase)?
**A.** 100 µM

**Q.** And the IC50 (5-Lipoxygenase)?
**A.** 75 µM

**Q.** And the “HINDLEG PARALYSIS - CUMULATIVE INCIDENCE DAY 9 TO 13” value [3]?
**A.** 10/12

**Q.** What about the “HINDLEG PARALYSIS - CUMULATIVE INCIDENCE DAY 14 TO 18” value [3] of the same molecule?
**A.** 0/11**
